# Laboratory results from patent US20190269752A1, “Methods for the Prevention or Treatment of Epilepsy” (Duke University, priority 2018, published 2019).
# What was measured:
# TrkB kinase = target: T1, TrkB kinase (Mus musculus, UniProt P15209); settings: WT mice (Chen et al. 2005, Liu et al. 2013); cited from earlier work
# T1 construct: host or cells: wild type (C57/bl6) mice, endogenous TrkB
# kindled TrkB^F616A mice [1] = experiment: Kindling model, 1NMPP1 treatment in the absence of a preceding evoked seizure; assay type: in vivo; settings: no preceding evoked seizure, seizure evoked six days after cessation
# Description: (§1) Experiments were performed as previously described (He et al. 2010, He et al. 2014). A bipolar stimulating and recording electrode was inserted into the right amygdala (1.0 mm posterior, 2.9 mm lateral to bregma; 4.6 mm below dura). A skull screw was placed over the left frontal lobe as a ground electrode. After a postoperative recovery period of at least 5 days, animals were connected to a Grass Stimulator and monitored by both video and EEG. The current required to evoke an electrographic seizure (electrographic seizure threshold [EST]) was determined by applying a 1 s train of 1 msec biphasic-rectangular pulses at 60 Hz beginning at 20 μA. Additional stimulations were given in 20 μA increments at 1 min intervals until an electrographic seizure was detected. Animals then received two stimulations per day at the EST, with the behavioral seizure scores classified according to a modification of the Racine scale for mice (Borges et al., 2003; Racine, 1972): 0, normal activity; 1, arrest and rigid posture; 2, head nodding; 3, unilateral forelimb clonus; 4, rearing with bilateral forelimbs clonus; 5, rearing and falling; 6, tonic-clonic seizures with violent running and/or jumping. The criterion for “kindled” was the occurrence of three consecutive seizures of class 4 or greater, with limb clonus/tonus lasting at least 12 s.
# (§2) Design of individual experiments is presented in panel A of FIGS. 1-5. All “post-kindling seizures” (see FIG. 1A) were evoked with a stimulation intensity determined by assessing the EST a second time, typically 6 days after evoking the “final kindled seizure” the EST was determined by administering stimulations in 20 μA increments every 1 min, beginning at 20 μA, until an electrographic seizure was evoked.
# Prior to each administration, stock 100 mM 1NMPP1 was dissolved in a solubilization buffer containing 0.9% NaCL and 2.5% Tween-20 to a concentration of 1.67 mg/mL and dosed at 16.6 ug/g IP every 12 h for a total of five treatments. Vehicle injection served as a control. […]
# kindled WT mice = experiment: Kindling model, treatment initiated after an evoked seizure in wild type mice; assay type: in vivo; settings: 1NMPP1 treatment of WT animals (n=9) following Post-Kindling Seizure #1, p<0.01
# Text: All animal procedures were approved by the Institutional Animal Care and Use Committee (IACUC) at Duke University and conform to the National Institutes of Health and Duke University institutional guidelines for the care and use of experimental animals. Animals were maintained on a 12-hour light/dark cycle with food and water available ad libitum. Wild type (WT) adult (8-12 wk) C57/bl6 male mice were obtained from Charles River. TrkB^F616A mice were originally obtained from Dr. David Ginty (Chen et al. 2005) and backcrossed to the C57/bl6 line for at least seven generations. […]
# (§3) Video and EEG recordings were analyzed by a blinded, trained observer who quantified behavioral seizure class and duration of both electrographic and behavioral seizure.
# Experiments were performed as previously described (He et al. 2010, He et al. 2014). […] After a postoperative recovery period of at least 5 days, animals were connected to a Grass Stimulator and monitored by both video and EEG. The current required to evoke an electrographic seizure (electrographic seizure threshold [EST]) was determined by applying a 1 s train of 1 msec biphasic-rectangular pulses at 60 Hz beginning at 20 μA. Additional stimulations were given in 20 μA increments at 1 min intervals until an electrographic seizure was detected. […]
# kindled TrkB^F616A mice [2] = experiment: Kindling model, 1NMPP1 treatment initiated after an evoked seizure (chemical-genetic inhibition of TrkB kinase); assay type: in vivo
# Text: All animal procedures were approved by the Institutional Animal Care and Use Committee (IACUC) at Duke University and conform to the National Institutes of Health and Duke University institutional guidelines for the care and use of experimental animals. Animals were maintained on a 12-hour light/dark cycle with food and water available ad libitum. Wild type (WT) adult (8-12 wk) C57/bl6 male mice were obtained from Charles River. TrkB^F616A mice were originally obtained from Dr. David Ginty (Chen et al. 2005) and backcrossed to the C57/bl6 line for at least seven generations. This knockin mouse harbors a point mutation on the TrkB allele, substituting an alanine for phenylalanine within the ATP binding pocket of the TrkB kinase domain. This mutation renders TrkB protein uniquely susceptible to kinase inhibition by small molecule derivatives of the general kinase inhibitor PP1, including 1-(1,1-dimethylethyl)-3-(1-naphthalenylmethyl)-1H-pyrazolo[3,4-d]pyrimidin-4-amine (1NMPP1). […] Both male and female adult (8-12 wk) homozygous mice were used.
# as §3
# Experiments were performed as previously described (He et al. 2010, He et al. 2014). A bipolar stimulating and recording electrode was inserted into the right amygdala (1.0 mm posterior, 2.9 mm lateral to bregma; 4.6 mm below dura). A skull screw was placed over the left frontal lobe as a ground electrode. After a postoperative recovery period of at least 5 days, animals were connected to a Grass Stimulator and monitored by both video and EEG. The current required to evoke an electrographic seizure (electrographic seizure threshold [EST]) was determined by applying a 1 s train of 1 msec biphasic-rectangular pulses at 60 Hz beginning at 20 μA. Additional stimulations were given in 20 μA increments at 1 min intervals until an electrographic seizure was detected. […]
# Design of individual experiments is presented in panel A of FIGS. 1-5. All “post-kindling seizures” (see FIG. 1A) were evoked with a stimulation intensity determined by assessing the EST a second time, typically 6 days after evoking the “final kindled seizure” the EST was determined by administering stimulations in 20 μA increments every 1 min, beginning at 20 μA, until an electrographic seizure was evoked. […]
# [3] = tested on: epileptic animals (KA-SE); experiment: Spontaneous recurrent seizures (video-EEG) after kainic acid-induced status epilepticus (KA-SE model of TLE); assay type: in vivo, mice; settings: six animals; for SRS during two weeks following cessation of treatment: after carbamazepine 800 mg/kg/day in food pellets for two weeks; for SRS during two weeks on treatment: carbamazepine 800 mg/kg/day in food pellets for two weeks
# Text: Determining whether pY816 may be beneficial in epileptic animals required modification of our study of the kainic acid (KA)-status epilepticus (SE) model. To more closely mimic the clinical scenario in which patients seek medical attention for established TLE, we induced KA-SE and then conducted video-EEG recordings to detect spontaneous recurrent seizures during baseline periods of two to four weeks until they developed TLE prior to treating with pY816 peptide. In contrast to just three days of treatment with pY816 deployed in previous studies, we sought a more prolonged treatment with pY816 for the current experiments, namely two weeks. The intravenous route of administration used for three days in the prior studies was not feasible for two weeks, leading us to ask whether treatment via intraperitoneal route could inhibit activation of PLCγ1. We used the phosphorylation of residue Y783 of PLCγ1 detected on western blot of brain lysates as a surrogate measure of PLCγ1 activation.
# Having verified that intraperitoneal administration of pY816 inhibited PLCγ1 activation, we then asked whether treatment with pY816 initiated after onset of epilepsy and continued for two weeks would reduce the severity of epilepsy or even induce a remission. Towards that end, we induced KA-SE but then followed the animals for several weeks until they developed TLE as assessed by detection of SRS in continuous video-EEG recordings. We quantified the number of SRS in each animal by blinded review of video-EEG recordings during three distinct two week epochs (FIG. 8): a) baseline; b) treatment with pY816 (n=9) or Scr control (n=6), 20 mg/kg IP twice daily for two weeks (on Tx); c) following termination of treatment (Post Tx). As noted in FIG. 8, following induction of status epilepticus induced by infusion of kainic acid into amygdala (Gu et al 2015) animals underwent continuous video-EEG recording to detect spontaneous recurrent seizures. Following baseline recording of two weeks, animals were treated with either pY816 or Scr control peptide (20 mg/kg) twice daily for two weeks (Day 15-28). Video-EEG recording continued for two weeks following termination of treatment (Post-treatment).
# Results are shown in FIG. 9, where each symbol represents the number of seizures experienced by a given animal during Baseline, Treatment (Tx), or Post-treatment (Post Tx) periods. Horizontal bars designate median. Treatment (Tx) consisted of either pY816 or Scr control given 20 mg/kg twice daily for two weeks. Note that seizure detection was performed by analyses of video-EEG recordings by two blinded investigators.
# Antiseizure drugs in current clinical use provide symptomatic relief of seizures in many but not all patients, but seizures typically recur upon cessation of the drug. To verify that similar findings occur in our animal model, we tested the effect of an antiseizure drug in current clinical use in our model (carbamazepine). We infused additional animals with KA and assessed the occurrence of SRS with continuous video-EEG monitoring for several weeks. […] Thus, like TLE in humans, continuous treatment with an antiseizure drug suppresses seizures, yet seizures recur upon discontinuation of treatment.
# kindled mice = experiment: Kindling model, carbamazepine treatment after an evoked seizure; assay type: in vivo; settings: carbamazepine 20 mg/kg IP at four hour intervals for two days following Post-Kindling Seizure #1
# Description: as §1, §2
# Carbamazepine (Sigma) was dissolved in a solubilization buffer of 2% Tween-80 and 70% propylene glycol at a concentration of 2 mg/mL and administered at a dose of 20 mg/kg, a dose of carbamazepine sufficient to produce therapeutic blood levels (Grabenstatter et al. 2007). Treatments were given every 4 h for two days. […]
# T1 sequence (P15209 32-821): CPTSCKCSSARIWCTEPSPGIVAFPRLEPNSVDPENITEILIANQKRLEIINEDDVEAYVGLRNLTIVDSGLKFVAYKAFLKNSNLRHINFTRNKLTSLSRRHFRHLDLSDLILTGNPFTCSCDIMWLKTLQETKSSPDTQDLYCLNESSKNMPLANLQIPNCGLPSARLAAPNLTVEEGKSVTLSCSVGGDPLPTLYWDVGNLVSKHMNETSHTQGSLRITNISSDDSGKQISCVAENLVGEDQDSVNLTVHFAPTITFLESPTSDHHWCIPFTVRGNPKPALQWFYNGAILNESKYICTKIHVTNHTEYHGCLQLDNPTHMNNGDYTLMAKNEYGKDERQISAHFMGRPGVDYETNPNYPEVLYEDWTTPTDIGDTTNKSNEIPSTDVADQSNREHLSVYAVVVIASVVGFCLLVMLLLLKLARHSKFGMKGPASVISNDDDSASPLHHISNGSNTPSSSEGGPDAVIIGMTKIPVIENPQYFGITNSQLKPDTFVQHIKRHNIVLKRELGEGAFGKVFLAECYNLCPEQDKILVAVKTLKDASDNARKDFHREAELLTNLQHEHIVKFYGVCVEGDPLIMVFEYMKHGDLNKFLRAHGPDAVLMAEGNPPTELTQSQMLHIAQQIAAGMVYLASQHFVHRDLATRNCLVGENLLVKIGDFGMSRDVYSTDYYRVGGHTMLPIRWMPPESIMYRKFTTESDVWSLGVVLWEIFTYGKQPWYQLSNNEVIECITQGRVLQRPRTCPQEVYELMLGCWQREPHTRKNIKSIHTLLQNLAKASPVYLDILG
smiles,measurement,setting,value
"CC(C)(C)n1nc(Cc2cccc3ccccc23)c2c(N)ncnc21 [1NMPP1, 1-(1,1-dimethylethyl)-3-(1-naphthalenylmethyl)-1H-pyrazolo[3,4-d]pyrimidin-4-amine]",Detectable effect in WT mice,TrkB kinase,does not have any detectable effect
same,Duration of electrographic seizure versus vehicle,kindled TrkB^F616A mice [1]; 1NMPP1 for two days (IP and drinking water) six days after final kindled seizure,No differences were detected
same,Duration of behavioral seizure versus vehicle,kindled TrkB^F616A mice [1]; 1NMPP1 for two days,No differences were detected
same,Seizure class versus vehicle,kindled TrkB^F616A mice [1]; 1NMPP1 for two days,No differences were detected
same,"Duration of electrographic seizure, Post-Kindling Sz #2",kindled WT mice; Post-Kindling Sz #1 35.1±5.3 s,67.4 ± 13.5 s
same,"Duration of behavioral seizure, Post-Kindling Sz #2",kindled WT mice; Post-Kindling Sz #1 72.4±10.2 s,107.6 ± 10.5 s
same,"Duration of electrographic seizure, Post-Kindling Seizure #2","kindled TrkB^F616A mice [2]; 1NMPP1 16.6 ug/g IP every 12 h, five treatments, plus 25 μM in drinking water, initiated immediately following Post-Kindling Seizure #1, n=16, vehicle 56.6±7.6 s, p<0.01, Final Kindled Sz 43.8±4.5 s",29.2 ± 3.8 s
same,"Duration of behavioral seizure, Post-Kindling Seizure #2","kindled TrkB^F616A mice [2]; 1NMPP1 16.6 ug/g IP every 12 h, five treatments, plus drinking water, after Post-Kindling Seizure #1, vehicle 139.8±16.5 s, p<0.01",63.5 ± 10 s
same,Behavioral seizure class of Post-Kindling Seizure #2,"kindled TrkB^F616A mice [2]; 1NMPP1 after Post-Kindling Seizure #1, versus vehicle",nonsignificant trend toward reduction
same,Number of animals with subconvulsive (less than Class 4) Post-Kindling Sz #2,"kindled TrkB^F616A mice [2]; 1NMPP1 following Post-Kindling Sz #1, 33 animals received 1NMPP1 or pY816, controls 1 of 28",4
"NC(=O)N1c2ccccc2C=Cc2ccccc21 [carbamazepine, Carbamazepine]",SRS during two weeks following cessation of treatment,[3],seizures recurred in each animal
same,SRS during two weeks following cessation of treatment,[3]; listed as Carbamazepine,seizures recurred following cessation of treatment in each of the six animals
same,SRS during two weeks on treatment,[3],reduced in each of the six animals
same,SRS during two weeks on treatment,[3]; listed as Carbamazepine,effectively suppressed SRS in all but one animal
same,"Duration of behavioral seizure, Post-Kindling Sz #2, versus vehicle",kindled mice,No differences were detected
same,"Seizure class, Post-Kindling Sz #2, versus vehicle",kindled mice,No differences were detected
same,"Duration of electrographic seizure, Post-Kindling Sz #2, versus vehicle",kindled mice; Sz #2 evoked fourteen days after last dose,No differences were detected
